Values of other authors as cited in patent US20080312245A1, “Methods and compositions for treating acne and other infectious diseases” (priority 2007, published 2008).

**Q.** Which solubility in alcohol does the source give for `Cc1ncc([N+](=O)[O-])n1CCO` [Metronidazole, 2-methyl-5-nitro-1H-imidazole-1-ethanol] here?
**A.** The solubility in alcohol was “slightly soluble”.
